US10519160B2, “Imaging agents for neural flux” (The General Hospital Corporation, priority 2014, dated 2019)

How the values were obtained:
olfactory epithelium [1] = test: PET imaging of radiotracer uptake and specific binding with unlabeled-compound pretreatment in rats; format: in vivo, Sprague-Dawley rat
From the text: Prior to imaging, animals were anesthetized with isoflurane and a catheter was placed in a lateral tail vein. An extension line was used to attach the catheter to a syringe with heparinized saline, which was used to prevent clotting of the line and catheter. Animals were then placed in one of two instruments (a GammeMedicaTriumph PET/CT/SPECT scanner or a Siemens R4 PET scanner) and maintained under isoflurane anesthesia for the imaging period. For scans completed in the Triumph scanner, CT images of the animals were taken for PET image attenuation. For animals imaged in the R4, a Germanium (Ge) 68 or a Cobalt (Co) 57 line source was used to create an attenuation correction map. Following imaging, animals were placed in their cages and monitored until they recovered from the anesthesia.
Male Sprague-Dawley rats were imaged with [^11C] radiolabeled N-benzyl-2-fluoro-9-methyl-9H-purin-6-amine following treatment with [^12C] radiolabeled N-benzyl-2-fluoro-9-methyl-9H-purin-6-amine to determine the specific binding of the radiotracer in the olfactory epithelium. Animals were injected with [^12C] radiolabeled N-benzyl-2-fluoro-9-methyl-9H-purin-6-amine (i.v.; 16 mg/kg; 4 mg/mL in 10% DMSO, 10% Tween 20, and 80% saline). After 5 min, animals were injected with [^11C] radiolabeled N-benzyl-2-fluoro-9-methyl-9H-purin-6-amine (0.3-1.5 mCi), in 10% ethanol, 90% saline). [^11C] […] Although [^11C] […] N-benzyl-2-fluoro-9-methyl-9H-purin-6-amine binding in the presence of unlabeled N-benzyl-2-fluoro-9-methyl-9H-purin-6-amine, shown in FIG. 1A-1D.
Animals were injected with an unlabeled N-benzyl-2-fluoro-9-methyl-9H-purin-6-amine (0.1-16 mg/kg in 10% DMSO, 10% Tween 20, and 80% saline). Following this, animals were injected with [^11C] radiolabeled N-benzyl-2-fluoro-9-methyl-9H-purin-6-amine (0.3-1.5 mCi, in 10% ethanol, 90% saline). For the self-blocking dose-response study, the animals were co-administered with N-benzyl-2-fluoro-9-methyl-9H-purin-6-amine and [^11C] radiolabeled N-benzyl-2-fluoro-9-methyl-9H-purin-6-amine in 10% DMSO, 10% Tween 20, 10% ethanol and 70% saline in 1 mL.

olfactory epithelium [2] = test: PET-MR imaging of radiotracer uptake in non-human primate; format: in vivo, rhesus macaque; conditions: NHPs
Procedure: The non-human primates were initially anesthetized with ketamine, followed by maintenance with isoflurane. Animals were placed on the imaging bed and two lines were inserted, an IV line for tracer administration and an arterial line for blood sampling. The animals were scanned for 90 minutes, including time for the MR structural scan. During the scan and tracer injection, the heart and breathing rate of the animal were monitored. Tracer doses were 4-6 mCi (bolus or bolus-plus-infusion) with or without treatment with study compounds (nonradioactive ‘blocking agent’). Prior to tracer injection, the purified tracer was analyzed on an analytical HPLC instrument to determine the purity (must be >95% chemical purity, must be >99% radiochemical purity) and specific activity (must be >1.0 Ci·μmol^−1 of the compound). As standard practice for all NHP work, pyrogenicity, chemical and radiochemical stability, residual solvents, pH, and sterility (post injection) were tested for. For [^11C] radiolabeled compounds, paired studies were performed with radiotracer injections spaced >2.5 h apart. For [^18F] studies, paired studies were performed by assessing baseline and pretreatment effect on two separate days. […]

[3] = PET, i.v. radiotracer, male Sprague-Dawley rats

- non-specific binding (olfactory epithelium [1]; PET, brain): low non-specific binding
- specific binding in the brain (olfactory epithelium [1]; PET, brain): limited specific binding in the brain
- initial uptake in the brain (olfactory epithelium [1]; [3]): high initial uptake in the brain
- removal from the brain (olfactory epithelium [1]; [3]): fast removal from the brain
- specific binding in the nasal cavity (olfactory epithelium [1]; PET, nasal cavity where olfactory receptor neurons are located, rats): specific binding in the nasal cavity
- change of radiotracer binding in the presence of unlabeled N-benzyl-2-fluoro-9-methyl-9H-purin-6-amine (olfactory epithelium [1]; nasal cavity, rats, unlabeled compound i.v. 16 mg/kg 5 min before tracer): decrease
- change of radiotracer binding in the presence of unlabeled N-benzyl-2-fluoro-9-methyl-9H-purin-6-amine (olfactory epithelium [2]; nasal cavity): decrease
SMILES: [11CH3]n1cnc2c(NCc3ccccc3)nc(F)nc21 [[^11C] Radiolabeled N-benzyl-2-fluoro-9-methyl-9H-purin-6-amine]
- specific binding in the nasal cavity (olfactory epithelium [2]): specific binding is present in the nasal cavity
